Read-outs that look alike come from different tables or passages of the source.
Tests used:
A. calcoaceticus No. 4 = test: in vitro antibacterial activity, agar plate dilution method; type: cell-based; conditions: Acinetobacter calcoaceticus, NO.4, 16 h
In short: (§1)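 MIC (μg/ml) read after 16 h at 37° C. on Mueller Hinton agar with graded drug levels; inoculum one platinum loopful of overnight MH broth culture.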

E. cloacae 963 = test: as above; type: cell-based; conditions: Enterobacter cloacae, 963, 16 h
In short: as §1

E. cloacae Nek 39* = test: as above; type: cell-based; conditions: Enterobacter cloacae
In short: as §1

E. coli CSH(RE45)* = test: as above; type: cell-based; conditions: Escherichia coli; 10^6 CFU/ml; β-Lactamase-producing strain; 37° C., 16 hours; read-out: MIC
In short: as §1

E. coli CSH2(RK1)* = test: as above; type: cell-based; conditions: Escherichia coli, 16 h
In short: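 Overnight Mueller Hinton broth cultures were loop-inoculated onto Mueller Hinton agar containing serial antibiotic concentrations. After 16 h at 37 °C, the MIC (μg/ml) was read.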

E. coli GN5482* = test: as above; type: cell-based; conditions: Escherichia coli, GN5482, 16 h
In short: as §1

E. coli NIHJ JC2 = test: as above; type: cell-based; conditions: Escherichia coli, NIHJJC2; 10^6 CFU/ml; Mueller Hinton agar, 37° C., 16 hours; read-out: MIC
In short: as §1

K. oxytoca GN10650* = test: as above; type: cell-based; conditions: Klebsiella oxytoca
In short: as §1

K. pneumoniae No. 42* = test: as above; type: cell-based; conditions: Klebsiella pneumoniae
In short: as §1

K. pneumoniae PC1-602 = test: as above; type: cell-based; conditions: Klebsiella pneumoniae, PC1602; 10^6 CFU/ml; Mueller Hinton agar, 37° C., 16 hours; read-out: MIC
In short: as §1

M. morganii GN5407* = test: as above; type: cell-based; conditions: Morganella morganii
In short: as §1

P. vulgaris HX-19 = test: as above; type: cell-based; conditions: Proteus vulgaris
In short: as §1

P. vulgaris No. 33* = test: as above; type: cell-based; conditions: Proteus vulgaris
In short: as §1

Ps. aeruginosa AK 109 = test: as above; type: cell-based; conditions: Pseudomonas aeruginosa, AK109; 10^6 CFU/ml; Mueller Hinton agar, 37° C., 16 hours; read-out: MIC
In short: as §1

Ps. aeruginosa AKR17 = test: as above; type: cell-based; conditions: Pseudomonas aeruginosa
In short: as §1

Ps. aeruginosa IFO3445 = test: as above; type: cell-based; conditions: Pseudomonas aeruginosa, IFO3445, 16 h
In short: as §1

Ps. cepacia 23 = test: as above; type: cell-based
In short: as §1

S. aureus 209P NIHJ-JC1 = test: as above; type: cell-based; conditions: Staphylococcus aureus; 10^6 CFU/ml; Mueller Hinton agar, 37° C., 16 hours; read-out: MIC
In short: as §1

S. marcescens IAM 1184 = test: as above; type: cell-based; conditions: Serratia marcescens
In short: as §1

S. marcescens No. 16-2* = test: as above; type: cell-based; conditions: Serratia marcescens
In short: as §1

[1] = concentration in blood after subcutaneous administration to mice (paper disk method, Morganella morganii IFO 3843); type: in vivo, mice (ddY, male); conditions: mouse, sc, 20 mg/kg subcutaneous
Experimental: As a representative example, the compound of Example 15 was administered to mice by means of subcutaneous administration, and the concentration in the blood was measured. […] The test compound was dissolved in a physiological sodium chloride solution to obtain a formulation having a concentration of 2 mg/ml. […] Now, Ceftazidime was used as a comparative compound. Further, the antibacterial activities of the sample diluted by plasma to have an appropriate concentration were measured by the paper disk method using Morganella morganii IFO 3843 as the test bacterium.

[2] = 10^6 CFU/ml, β-Lactamase-producing strain, 37° C., 16 hours, read-out: MIC

SMILES: C=C(O/N=C(\C(=O)N[C@@H]1C(=O)N2C(C(=O)O)=C(CSc3nc(C(=O)O)c(-c4ccc(O)c(O)c4)s3)CS[C@H]12)c1csc(N)n1)C(=O)O [Example 15, trisodium 78-[2-(2-aminothiazol-4-yl)-2-(1-carboxylato-1-vinyloxyimino)acetamido]-3-[4-carboxylato-5-(3,4-dihydroxyphenyl)thiazol-2-yl]thiomethyl-3-cephem-4-carboxylate (syn-isomer)]
- MIC (A. calcoaceticus No. 4): 0.39 µg/mL
- MIC (E. cloacae 963): 0.05 µg/mL
- MIC (E. cloacae Nek 39*; 16 h): 0.05 µg/mL
- MIC (E. coli CSH(RE45)*): 0.05 µg/mL
- MIC (E. coli CSH2(RK1)*): 0.0125 µg/mL
- MIC (E. coli GN5482*): 0.39 µg/mL
- MIC (E. coli NIHJ JC2): 0.39 µg/mL
- MIC (K. oxytoca GN10650*; GN10650, 16 h): 0.1 µg/mL
- MIC (K. pneumoniae No. 42*; 16 h): 0.1 µg/mL
- MIC (K. pneumoniae PC1-602): < 0.006 µg/mL
- MIC (M. morganii GN5407*; GN5407, 16 h): 0.025 µg/mL
- MIC (P. vulgaris HX-19; HX19, 16 h): 0.0125 µg/mL
- MIC (P. vulgaris No. 33*; [2]): < 0.006 µg/mL
- MIC (Ps. aeruginosa AK 109): 0.78 µg/mL
- MIC (Ps. aeruginosa AKR17; AKR17, 16 h): 1.56 µg/mL
- MIC (Ps. aeruginosa IFO3445): 1.56 µg/mL
- MIC (Ps. cepacia 23; Burkholderia cepacia, 23, 10^6 CFU/ml, Mueller Hinton agar, 37° C., 16 hours, read-out: MIC): < 0.006 µg/mL
- MIC (S. aureus 209P NIHJ-JC1): 25 µg/mL
- MIC (S. marcescens IAM 1184; IAM1184, 16 h): 0.05 µg/mL
- MIC (S. marcescens No. 16-2*; [2]): 0.78 µg/mL
- concentration at 0.125 h ([1]; 7.5 min): 33800 ng/mL
- concentration at 0.25 h ([1]; 15 min): 45000 ng/mL
- concentration at 0.5 h ([1]; 30 min): 44300 ng/mL
- concentration at 1 h ([1]; 60 min): 21900 ng/mL
- concentration at 2 h ([1]; 120 min): 7100 ng/mL
- concentration at 4 h ([1]; 240 min): 7200 ng/mL

SMILES: C=C(O/N=C(\C(=O)N[C@@H]1C(=O)N2C(C(=O)O)=C(CSc3nc(-c4ccc(O)c(O)c4)cs3)CS[C@H]12)c1csc(N)n1)C(=O)O [Example 12, disodium 7β-[2-(2-aminothiazol-4-yl)-2-(1-carboxylato-1-vinyloxyimino)acetamido]-3-[4-(3,4-dihydroxyphenyl)thiazol-2-yl]thiomethyl-3-cephem-4-carboxylate(syn-isomer)]
- MIC (A. calcoaceticus No. 4): 0.2 µg/mL
- MIC (E. cloacae 963): 0.2 µg/mL
- MIC (E. cloacae Nek 39*; [2]): 0.1 µg/mL
- MIC (E. coli CSH(RE45)*): 0.025 µg/mL
- MIC (E. coli CSH2(RK1)*): 0.025 µg/mL
- MIC (E. coli GN5482*): 0.39 µg/mL
- MIC (E. coli NIHJ JC2): 0.39 µg/mL
- MIC (K. oxytoca GN10650*; GN10650, 10^6 CFU/ml, β-Lactamase-producing strain, 37° C., 16 hours, read-out: MIC): 0.1 µg/mL
- MIC (K. pneumoniae No. 42*; [2]): 0.05 µg/mL
- MIC (K. pneumoniae PC1-602): < 0.006 µg/mL
- MIC (M. morganii GN5407*; GN5407, 10^6 CFU/ml, β-Lactamase-producing strain, 37° C., 16 hours, read-out: MIC): 0.05 µg/mL
- MIC (P. vulgaris HX-19; HX19, 10^6 CFU/ml, Mueller Hinton agar, 37° C., 16 hours, read-out: MIC): < 0.006 µg/mL
- MIC (P. vulgaris No. 33*; 16 h): 0.025 µg/mL
- MIC (Ps. aeruginosa AK 109): 1.56 µg/mL
- MIC (Ps. aeruginosa AKR17; AKR17, 10^6 CFU/ml, Mueller Hinton agar, 37° C., 16 hours, read-out: MIC): 3.12 µg/mL
- MIC (Ps. aeruginosa IFO3445): 0.78 µg/mL
- MIC (Ps. cepacia 23; Burkholderia cepacia, 23, 16 h): 0.025 µg/mL
- MIC (S. aureus 209P NIHJ-JC1): 3.12 µg/mL
- MIC (S. marcescens IAM 1184; IAM1184, 10^6 CFU/ml, Mueller Hinton agar, 37° C., 16 hours, read-out: MIC): 0.05 µg/mL
- MIC (S. marcescens No. 16-2*; 16 h): 0.39 µg/mL

Source: US5084453A, “1-carboxy-1-vinyloxyimino aminothiazole cephalosporin derivatives” (priority 1988, dated 1992)
